This note sets out measurements from paper PMC10385850, “Modified Hederagenin Derivatives Demonstrate Ex Vivo Anthelmintic Activity against Fasciola hepatica” (Pharmaceutics, 2023).

Molecules are shown by their SMILES. Entries after “also recorded” stand apart in the source; their conditions may differ.

This assay concerns F. hepatica newly excysted juveniles (NEJs), Italian strain. Nature of the assay: Ex vivo screen against newly excysted juveniles (NEJs), phenotype and motility scoring. Conditions: 10 µM; for Average motility of 25 NEJs with 95% CI, 24 hours / Average motility of 25 NEJs with 95% CI, 48 hours / Average motility of 25 NEJs with 95% CI, 72 hours: motility score 1 good/normal to 5 no movement; for Average phenotype of 25 NEJs with 95% CI, 24 hours / Average phenotype of 25 NEJs with 95% CI, 48 hours / Average phenotype of 25 NEJs with 95% CI, 72 hours: ultrastructure score 1 normal to 6 dead or dissolved; for Activity against NEJs (first screen), in words: 72 h co-culture. It is filed as cell-based, Fasciola hepatica. As to the method: […] The NEJs were excysted from metacercariae and assayed at 10 μM (in 0.1% DMSO) final concentration alongside negative (0.1% DMSO) and positive (10 μM TCBZ, in 0.1% DMSO) controls as previously described. The MC and IVL compound series were screened separately.
The motility (1—good/normal; 2—moderate; 3—low; 4—very little; 5—no movement) and phenotypic (ultrastructural changes) scores were noted according to a previously described scoring matrix (Figure S1 and Table S2).

With `CCCCCCCCCCCCCCCC(=O)OC[C@]12CCC(C)(C)CC1C1=CCC3[C@@]4(C)CCC5OC(C)(C)OC[C@@]5(C)C4CC[C@@]3(C)[C@]1(C)CC2` (stereo partly drawn) [MC032, ((4aR,6aR,6bS,8aS,14bR)-2,2,4a,6a,6b,11,11,14b-Octamethyl-4a,5,6,6a,6b,7,8,9,10,11,12,12a,14,14a, 14b,15,16,16a-octadecahydro-4H-piceno[3,4-d][1,3]dioxin-8a(4bH)-yl)methyl palmitate], the “Average motility of 25 NEJs with 95% CI, 24 hours” value was 3.20 (2.6;3.7); the “Average phenotype of 25 NEJs with 95% CI, 24 hours” value is on record as 2.52 (1.7;3.3); the “Average motility of 25 NEJs with 95% CI, 48 hours” value is reported as 3.12 (2.5;3.6); the “Average phenotype of 25 NEJs with 95% CI, 48 hours” value is 2.64 (1.8;3.4). In addition, the “Average motility of 25 NEJs with 95% CI, 72 hours” value is on record as 3.12 (2.5;3.7) and the “Average phenotype of 25 NEJs with 95% CI, 72 hours” value is 2.80 (2;3.5).
As for `CCCCCCCCCCCCCCCC(=O)OC[C@]12CCC(C)(C)CC1C1=CCC3[C@@]4(C)CC[C@H](O)[C@@](C)(CO)C4CC[C@@]3(C)[C@]1(C)CC2` (stereo partly drawn) [MC038, ((4aS,6aS,6bR,9R,10S,12aR)-10-Hydroxy-9-(hydroxymethyl)-2,2,6a,6b,9,12a-hexamethyl-1,3,4,5,6,6a, 6b,7,8,8a,9,10,11,12,12a,12b,13,14b-octadecahydropicen-4a(2H)-yl)methyl palmitate], the “Average motility of 25 NEJs with 95% CI, 24 hours” value is 2.96 (2.3;3.5); the “Average phenotype of 25 NEJs with 95% CI, 24 hours” value is recorded as 2.32 (1.7;2.9); the “Average motility of 25 NEJs with 95% CI, 48 hours” value is listed as 2.80 (2.2;3.3); the “Average phenotype of 25 NEJs with 95% CI, 48 hours” value was 2.92 (2.1;3.6). Moreover, the “Average motility of 25 NEJs with 95% CI, 72 hours” value is 3.32 (2.7;3.8) and the “Average phenotype of 25 NEJs with 95% CI, 72 hours” value was 3.48 (2.7;4.2).
`CC1(C)CC[C@]2(NC(=O)N[C@H]3C(O)O[C@H](CO)[C@@H](O)[C@@H]3O)CC[C@]3(C)C(=CCC4[C@@]5(C)CC[C@H](O)[C@@](C)(CO)C5CC[C@]43C)C2C1` (stereo partly drawn) [MC030, 1-((4aS,6aS,6bR,9R,10S,12aR)-10-Hydroxy-9-(hydroxymethyl)-2,2,6a,6b,9,12a-hexa-methyl-1,3,4,5,6,6a,6b,7,8,8a,9,10,11,12,12a,12b,13,14b-octadecahydropicen-4a(2H)-yl)-3-((3R,4R,5S,6R)-2,4,5-tri-hydroxy-6-(hydroxymethyl)tetrahydro-2H-pyran-3-yl)urea]: the “Average motility of 25 NEJs with 95% CI, 24 hours” value is recorded as 3.20 (2.6;3.7); the “Average phenotype of 25 NEJs with 95% CI, 24 hours” value was 3.00 (2.2;3.7); the “Average motility of 25 NEJs with 95% CI, 48 hours” value was 3.92 (3.5;4.2); the “Average phenotype of 25 NEJs with 95% CI, 48 hours” value is listed as 3.60 (2.9;4.2). Moreover, the “Average motility of 25 NEJs with 95% CI, 72 hours” value is reported as 3.96 (3.4;4.4); the “Average phenotype of 25 NEJs with 95% CI, 72 hours” value is reported as 4.00 (3.2;4.7); the “Activity against NEJs (first screen), in words” value (“Activity against NEJs” below) was “none reached the level required; also recorded: low activity”.
As for `CC1(C)CC[C@]2(N=C=O)CC[C@]3(C)C(=CCC4[C@@]5(C)CCC6OC(C)(C)OC[C@@]6(C)C5CC[C@]43C)C2C1` (stereo partly drawn) [MC015, (4aR,6aR,6bS,8aS,14bR)-8a-Isocyanato-2,2,4a,6a,6b,11,11,14b-octamethyl-4a,4b,5,6,6a,6b,7,8,8a,9, 10,11,12,12a,14,14a,14b,15,16,16a-eicosahydro-4H-piceno[3,4-d][1,3]dioxine], the “Average motility of 25 NEJs with 95% CI, 24 hours” value was 2.56 (2;3); the “Average phenotype of 25 NEJs with 95% CI, 24 hours” value is given as 2.24 (1.6;2.8); the “Average motility of 25 NEJs with 95% CI, 48 hours” value is on record as 3.08 (2.4;3.6); the “Average phenotype of 25 NEJs with 95% CI, 48 hours” value was 2.84 (2;3.5). The “Average motility of 25 NEJs with 95% CI, 72 hours” value is recorded as 3.12 (2.4;3.7); the “Average phenotype of 25 NEJs with 95% CI, 72 hours” value is given as 3.56 (2.7;4.3); the “Activity against NEJs” value was “None of the three passed the first screen”.
`CN(C[C@H](O)[C@@H](O)[C@H](O)[C@H](O)CO)C(=O)N[C@]12CCC(C)(C)CC1C1=CCC3[C@@]4(C)CC[C@@H]5OC(C)(C)OC[C@@]5(C)C4CC[C@@]3(C)[C@]1(C)CC2` (stereo partly drawn) [MC059, 1-Methyl-3-((4aR,6aR,6bS,8aS,14bR,16aS)-2,2,4a,6a,6b,11,11,14b-octamethyl-4a,5,6,6a, 6b,7,8,9,10,11, 12,12a,14,14a,14b,15,16,16a-octadecahydro-4H-piceno[3,4-d][1,3]dioxin-8a(4bH)-yl)-1-((2S,3R,4R,5R)-2,3,4,5,6-pentahydroxyhexyl)urea]: the “Average motility of 25 NEJs with 95% CI, 24 hours” value was 2.84 (2.3;3.3); the “Average phenotype of 25 NEJs with 95% CI, 24 hours” value is given as 2.68 (1.9;3.3); the “Average motility of 25 NEJs with 95% CI, 48 hours” value is listed as 3.20 (2.7;3.6); the “Average phenotype of 25 NEJs with 95% CI, 48 hours” value is reported as 3.04 (2.3;3.7). Besides, the “Average motility of 25 NEJs with 95% CI, 72 hours” value was 3.20 (2.6;3.7); the “Average phenotype of 25 NEJs with 95% CI, 72 hours” value is reported as 3.88 (3.2;4.4); the “Activity against NEJs” value was “none reached the level required”.
For `COC(=O)[C@H](Cc1c[nH]cn1)NC(=O)N[C@]12CCC(C)(C)CC1C1=CCC3[C@@]4(C)CC[C@@H]5OC(C)(C)OC[C@@]5(C)C4CC[C@@]3(C)[C@]1(C)CC2` (stereo partly drawn) [MC048, Methyl (((4aR,6aR,6bS,8aS,14bR,16aS)-2,2,4a,6a,6b,11,11,14b-octamethyl-4a,5,6,6a,6b,7,8,9,10,11,12, 12a,14,14a,14b,15,16,16a-octadecahydro-4H-piceno[3,4-d][1,3]dioxin-8a(4bH)-yl)carbamoyl)-L-histidinate], the “Average motility of 25 NEJs with 95% CI, 24 hours” value was 1.40 (1.2;1.5); the “Average phenotype of 25 NEJs with 95% CI, 24 hours” value is given as 1.44 (1.2;1.6); the “Average motility of 25 NEJs with 95% CI, 72 hours” value is given as 1.96 (1.8;2); the “Average phenotype of 25 NEJs with 95% CI, 72 hours” value is recorded as 1.88 (1.7;2).
In the case of `COC(=O)[C@@H](NC(=O)N[C@]12CCC(C)(C)CC1C1=CCC3[C@@]4(C)CCC5OC(C)(C)OC[C@@]5(C)C4CC[C@@]3(C)[C@]1(C)CC2)C(C)C` (stereo partly drawn) [MC027, Methyl (((4aR,6aR,6bS,8aS,14bR)-2,2,4a,6a,6b,11,11,14b-octamethyl-4a,5,6,6a,6b,7,8,9,10, 11,12,12a, 14,14a,14b,15,16,16a-octadecahydro-4H-piceno[3,4-d][1,3]dioxin-8a(4bH)-yl)-carbamoyl)-L-valinate], the “Average motility of 25 NEJs with 95% CI, 24 hours” value is 3.48 (2.9;3.9); the “Average phenotype of 25 NEJs with 95% CI, 24 hours” value was 3.32 (2.5;4.1); the “Average motility of 25 NEJs with 95% CI, 48 hours” value was 4.72 (4.4;4.9); the “Average phenotype of 25 NEJs with 95% CI, 48 hours” value is reported as 4.64 (3.9;5.3). The “Average motility of 25 NEJs with 95% CI, 72 hours” value was 4.76 (4.4;5) and the “Average phenotype of 25 NEJs with 95% CI, 72 hours” value is listed as 5.48 (4.9;5.9).
Regarding `CC(=O)OC[C@]12CCC(C)(C)CC1C1=CCC3[C@@]4(C)CCC5OC(C)(C)OC[C@@]5(C)C4CC[C@@]3(C)[C@]1(C)CC2` (stereo partly drawn) [MC031, ((4aR,6aR,6bS,8aS,14bR)-2,2,4a,6a,6b,11,11,14b-Octamethyl-4a,5,6,6a,6b,7,8,9,10,11,12,12a,14,14a, 14b,15,16,16a-octadecahydro-4H-piceno[3,4-d][1,3]dioxin-8a(4bH)-yl)methyl acetate], the “Average motility of 25 NEJs with 95% CI, 24 hours” value is listed as 2.96 (2.4;3.4); the “Average phenotype of 25 NEJs with 95% CI, 24 hours” value was 2.72 (1.9;3.4); the “Average motility of 25 NEJs with 95% CI, 48 hours” value is recorded as 2.76 (2;3.4); the “Average phenotype of 25 NEJs with 95% CI, 48 hours” value is given as 3.64 (2.9;4.3). For the same compound, the “Average motility of 25 NEJs with 95% CI, 72 hours” value is 3.44 (2.6;4.2) and the “Average phenotype of 25 NEJs with 95% CI, 72 hours” value is on record as 4.80 (4.2;5.3).
As for `CC1(C)CC[C@]2(NC(=O)N[C@H]3C(O)O[C@H](CO)[C@@H](O)[C@@H]3O)CC[C@]3(C)C(=CCC4[C@@]5(C)CCC6OC(C)(C)OC[C@@]6(C)C5CC[C@]43C)C2C1` (stereo partly drawn) [MC028, 1-((4aR,6aR,6bS,8aS,14bR)-2,2,4a,6a,6b,11,11,14b-Octamethyl-4a,5,6,6a,6b,7,8,9,10,11, 12,12a,14,14a, 14b,15,16,16a-octadecahydro-4H-piceno[3,4-d][1,3]dioxin-8a(4bH)-yl)-3-((3R,4R,5S,6R)-2,4,5-tri-hydroxy-6-(hydroxymethyl)tetrahydro-2H-pyran-3-yl)urea], the “Average motility of 25 NEJs with 95% CI, 24 hours” value was 2.32 (1.8;2.7); the “Average phenotype of 25 NEJs with 95% CI, 24 hours” value is on record as 2.24 (1.6;2.8); the “Average motility of 25 NEJs with 95% CI, 48 hours” value is reported as 3.52 (2.9;4); the “Average phenotype of 25 NEJs with 95% CI, 48 hours” value is on record as 2.76 (2;3.4). Besides, the “Average motility of 25 NEJs with 95% CI, 72 hours” value is recorded as 2.60 (1.9;3.2); the “Average phenotype of 25 NEJs with 95% CI, 72 hours” value was 2.72 (2;3.4); the “Activity against NEJs” value was “none reached the level required”.
With `CCCCOC(=O)N[C@]12CCC(C)(C)CC1C1=CCC3[C@@]4(C)CCC5OC(C)(C)OC[C@@]5(C)C4CC[C@@]3(C)[C@]1(C)CC2` (stereo partly drawn) [MC019, Butyl ((4aR,6aR,6bS,8aS,14bR)-2,2,4a,6a,6b,11,11,14b-octamethyl-4a,5,6,6a,6b,7,8,9,10, 11,12,12a,14, 14a,14b,15,16,16a-octadecahydro-4H-piceno[3,4-d][1,3]dioxin-8a(4bH)-yl)carbamate], the “Average motility of 25 NEJs with 95% CI, 24 hours” value is on record as 2.24 (1.7;2.7); the “Average phenotype of 25 NEJs with 95% CI, 24 hours” value is listed as 2.40 (1.8;2.9); the “Average motility of 25 NEJs with 95% CI, 48 hours” value is 4.00 (3.7;4.2); the “Average phenotype of 25 NEJs with 95% CI, 48 hours” value was 3.20 (2.6;3.7). Further, the “Average motility of 25 NEJs with 95% CI, 72 hours” value is 4.36 (3.9;4.7); the “Average phenotype of 25 NEJs with 95% CI, 72 hours” value is 3.40 (2.7;4); the “Activity against NEJs” value was “inactive against NEJs”.
